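Here, GI50 denotes the concentration required for 50% inhibition of growth. TGI marks complete inhibition of growth.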
What was measured:
Assay in all cases: NCI tumour cell line growth inhibition, 384-well format
[1] = system: COLO 205 colon
[2] = system: HCC-2998 colon
[3] = system: SR leukemia
[4] = system: M14 melanoma
[5] = system: KM12 colon
[6] = system: NCI/ADR-RES ovarian
[7] = system: OVCAR-5 ovarian
[8] = system: HCT-15 colon
[9] = system: MDA-MB-231 breast
[10] = system: MDA-MB-468 breast
[11] = system: CAKI-1 renal
[12] = system: SW-620 colon
[13] = system: MDA-MB-435 melanoma
[14] = system: TK-10 renal
[15] = system: NCI-H23 lung
[16] = system: SNB-19 CNS
[17] = system: NCI-H322M lung
[18] = system: HOP-92 NSCLC
[19] = system: OVCAR-3 ovarian
[20] = system: SK-MEL-28 melanoma
[21] = system: 786-0 renal
[22] = system: ACHN renal
[23] = system: SK-OV-3 ovarian
[24] = system: UO-31 renal
[25] = system: MALME-3M melanoma
[26] = system: UACC-257 melanoma
[27] = system: PC-3 prostate
[28] = system: SNB-75 CNS
[29] = system: SF-268 CNS
[30] = system: UACC-62 melanoma
[31] = system: LOX IMVI melanoma
[32] = system: HOP-62 NSCLC
[33] = system: MCF7 breast
[34] = system: NCI-H522 lung
[35] = system: SK-MEL-5 melanoma
[36] = system: U251 glioblastoma
[37] = system: NCI-H226 lung
[38] = system: HCT-116 colon
[39] = system: SN12C renal
[40] = system: OVCAR-8 ovarian
[41] = system: MOLT-4 leukemia
[42] = system: NCI-H460 NSCLC
[43] = system: SF-295 CNS
[44] = system: RXF 393 renal
[45] = system: RPMI-8226 leukemia
[46] = system: OVCAR-4 ovarian
[47] = system: EKVX NSCLC
[48] = system: SF-539 CNS
[49] = system: HL-60(TB) leukemia
[50] = system: IGROV1 ovarian
[51] = system: CCRF-CEM leukemia
[52] = system: DU-145 prostate
[53] = system: BT-549 breast
[54] = system: A549 NSCLC
[55] = system: T-47D breast
[56] = system: A498 renal
[57] = system: HS 578T breast

Compound: CNC(=O)c1cc(Oc2ccc(NC(=O)Nc3ccc(Cl)c(C(F)(F)F)c3)c(F)c2)ccn1
- GI50 [1]: 1.64 µM
- TGI [1]: 4.7 µM
- GI50 [2]: 2.04 µM
- TGI [2]: 5.98 µM
- GI50 [3]: 1.47 µM
- TGI [3]: 2.82 µM
- GI50 [4]: 1.69 µM
- TGI [4]: 8.56 µM
- GI50 [5]: 3.03 µM
- TGI [5]: 15.5 µM
- GI50 [6]: 2.06 µM
- TGI [6]: 5.1 µM
- GI50 [7]: 5.79 µM
- TGI [7]: 28.5 µM
- GI50 [8]: 2.52 µM
- TGI [8]: 9.38 µM
- GI50 [9]: 1.35 µM
- TGI [9]: 3.47 µM
- GI50 [10]: 1.72 µM
- TGI [10]: 4.31 µM
- GI50 [11]: 2.67 µM
- TGI [11]: 7.59 µM
- GI50 [12]: 2.97 µM
- TGI [12]: 13.9 µM
- GI50 [13]: 3.14 µM
- TGI [13]: 14.6 µM
- GI50 [14]: 3.49 µM
- TGI [14]: 76.2 µM
- GI50 [15]: 1.34 µM
- TGI [15]: 3.43 µM
- GI50 [16]: 4.65 µM
- TGI [16]: > 88.5 µM
- GI50 [17]: 2.66 µM
- TGI [17]: 6.21 µM
- GI50 [18]: 2.27 µM
- TGI [18]: 5.43 µM
- GI50 [19]: 4.55 µM
- TGI [19]: 12.6 µM
- GI50 [20]: 1.39 µM
- TGI [20]: 8.75 µM
- GI50 [21]: 2.47 µM
- TGI [21]: 7.76 µM
- GI50 [22]: 3.38 µM
- TGI [22]: 25.1 µM
- GI50 [23]: 3.2 µM
- TGI [23]: 9.43 µM
- GI50 [24]: 2.02 µM
- TGI [24]: 5.44 µM
- GI50 [25]: 0.719 µM
- TGI [25]: 3.09 µM
- GI50 [26]: 2.45 µM
- TGI [26]: 9.07 µM
- GI50 [27]: 3.79 µM
- TGI [27]: 16.3 µM
- GI50 [28]: 5.14 µM
- TGI [28]: 12.9 µM
- GI50 [29]: 4.28 µM
- TGI [29]: 14.4 µM
- GI50 [30]: 2.09 µM
- TGI [30]: 7.66 µM
- GI50 [31]: 1.39 µM
- TGI [31]: 3.99 µM
- GI50 [32]: 2.98 µM
- TGI [32]: 10.1 µM
- GI50 [33]: 1.93 µM
- TGI [33]: 5.47 µM
- GI50 [34]: 2.83 µM
- TGI [34]: > 24.7 µM
- GI50 [35]: 1.6 µM
- TGI [35]: 3.86 µM
- GI50 [36]: 3.06 µM
- TGI [36]: 11 µM
- GI50 [37]: 1.93 µM
- GI50 [38]: 1.77 µM
- TGI [38]: 8.6 µM
- GI50 [39]: 3.16 µM
- TGI [39]: 11 µM
- GI50 [40]: 2.17 µM
- TGI [40]: 5.79 µM
- GI50 [41]: 1.7 µM
- TGI [41]: 3.2 µM
- GI50 [42]: 3.08 µM
- TGI [42]: 10.7 µM
- GI50 [43]: 2.13 µM
- TGI [43]: 6.02 µM
- GI50 [44]: 2.49 µM
- TGI [44]: 4.98 µM
- GI50 [45]: 1.73 µM
- TGI [45]: 3.3 µM
- GI50 [46]: 2.55 µM
- TGI [46]: 7.25 µM
- GI50 [47]: 2.12 µM
- TGI [47]: 5.43 µM
- GI50 [48]: 2.13 µM
- TGI [48]: 6.63 µM
- GI50 [49]: 0.734 µM
- TGI [49]: 1.97 µM
- GI50 [50]: 2.8 µM
- TGI [50]: 14.5 µM
- GI50 [51]: 3.4 µM
- TGI [51]: 8.05 µM
- GI50 [52]: 3.02 µM
- TGI [52]: 9.32 µM
- GI50 [53]: 3.2 µM
- TGI [53]: 7.34 µM
- GI50 [54]: 2.66 µM
- TGI [54]: 8.57 µM
- GI50 [55]: 1.56 µM
- TGI [55]: 6.73 µM
- GI50 [56]: 3.66 µM
- TGI [56]: 21.7 µM
- GI50 [57]: 2.33 µM
- TGI [57]: 7.35 µM

From PubChem BioAssay (NCI)
